{"source": "patent US8586054B2", "about": "“Method for modulating, treating and/or preventing metabolic syndrome using MAS-G-protein-coupled receptor agonists” (Max-Delbruck-Centrum fur Molekulare Medizin, priority 2006, dated 2013)", "origin": "cited, not measured here", "key": {"[1]": {"settings": "LIFE study; compared with atenolol"}, "[2]": {"settings": "HOPE study; versus placebo"}, "[3]": {"settings": "VALUE study; hypertensive patients, valsartan versus amlodipine"}}}
{"compound": "CCCCc1nc(Cl)c(CO)n1Cc1ccc(-c2ccccc2-c2nn[nH]n2)cc1", "note": "[Losartan]", "values": [{"measurement": "reduction in the appearance of new cases of diabetes", "setting": "[1]", "result": 25, "unit": "%"}]}
{"compound": "CCOC(=O)[C@H](CCc1ccccc1)N[C@@H](C)C(=O)N1[C@H](C(=O)O)C[C@@H]2CCC[C@@H]21", "note": "[ramipril]", "values": [{"measurement": "incidence of diabetes lower than in the group that received placebo", "setting": "[2]", "result": 34, "unit": "%"}]}
{"compound": "CCCCC(=O)N(Cc1ccc(-c2ccccc2-c2nnn[nH]2)cc1)[C@H](C(=O)O)C(C)C", "note": "[valsartan]", "values": [{"measurement": "reduction in new cases of diabetes", "setting": "[3]", "result": 23, "unit": "%"}]}
